The test system of experiment [1] is SIRT1. The experiment is described as follows: SIRT1 expression promoting effect in human PBMCs (qRT-PCR). The experiment is classed as cell-based. To be noted: human PBMCs, 20, 50 or 100 μM, 24 hours; FIG. 17. The method, then:
The SIRT1 gene expression promoting effect of syringaresinol in human PBMCs was evaluated as follows.
Human PBMCs were purchased from Zen-Bio (Research Triangle Park, N.C., USA) and cultured in a 5% CO2 incubator using a PBMC medium (Zen-Bio) until 80% confluency. Then, the cells were treated for 24 hours with syringaresinol dissolved in DMSO to a concentration of 20, 50 or 100 μM. A negative control group was treated with DMSO corresponding to 1/1000 of the volume of the culture medium. The cells treated with each sample were washed with PBS and RNA was extracted therefrom using the TRIzol reagent (Invitrogen). Then, cDNA was synthesized from the extracted RNA (5 μg) using a reverse transcription system (Fermentas, Glen Burnie, Md., USA). The expression pattern of the SIRT1 and GAPDH genes was monitored by qRT-PCR using the synthesized cDNA and predesigned primers and probes. qRT-PCR reaction and analysis were carried out using the Rotor-Gene 3000 system (Corbett Research, Sydney, Australia).

Experiment [2] has as its system SIRT1. The experiment is described as follows: SIRT1 expression promoting effect in adipocytes, hepatocytes and myocytes (qRT-PCR). The experiment is classed as cell-based, human. Particulars: 24 hours, FIG. 4. The procedure:
The SIRT1 gene expression promoting effect of syringaresinol in human adipocytes, hepatocytes and myocytes was evaluated as follows.
Human adipocytes, hepatocytes and myocytes were purchased from Zen-Bio (Research Triangle Park, N.C., USA) and cultured in a 5% CO2 incubator using respectively an adipocyte medium (OM-AM, Zen-Bio), a hepatocyte medium (HM-2, Zen-Bio) and a myocyte medium (SKM-D, SKM-M, Zen-Bio). The cells were treated with syringaresinol dissolved in DMSO to a concentration of 20, 50 or 100 μM for 24 hours. A negative control group was treated with DMSO corresponding to 1/1000 of the volume of the culture medium.
The cells treated with each sample were washed 2 times with cold PBS and RNA was extracted therefrom using the TRIzol reagent (Invitrogen). Then, cDNA was synthesized from the extracted RNA ([…]) using a reverse transcription system (Fermentas, Glen Burnie, Md., USA). The expression pattern of the SIRT1 and GAPDH genes was monitored by qRT-PCR using the synthesized cDNA and predesigned primers and probes. PCR reaction and analysis were carried out using the Rotor-Gene 3000 system (Corbett Research, Sydney, Australia).
On the technique in general: Quantitative PCR measures a nucleic acid by following its amplification.

The test system of experiment [3] is ACO, CPT1, mCAD. The experiment is described as follows: Expression of fatty acid oxidation-related genes (qRT-PCR). Type of experiment: cell-based, human. To be noted: 50 μM, vs DMSO control. The procedure: Human adipocytes, hepatocytes and myocytes were treated with 50 μM syringaresinol and washed with PBS in substantially the same manner as in Test Example 3. RNA was extracted from the cells and cDNA was synthesized therefrom. The change in expression pattern of fatty acid synthesis-related genes such as ADD1/SREBP1c, ACC, FAS, etc. and fatty acid oxidation-related genes such as ACO, CPT1, mCAD, etc. was measured by qRT-PCR.

The subject of experiment [4] is human PBMCs. The experiment is described as follows: Reactive oxygen species production inhibiting effect in LPS-treated human PBMCs (H2-DCFDA). The experiment is classed as cell-based. Particulars: human PBMCs pretreated with 20, 50 or 100 μM, then 10 ng/mL LPS; compared to cells treated only with LPS; FIG. 18. The procedure: After pretreating human PBMCs with 20, 50 or 100 μM syringaresinol in substantially the same manner as in Test Example 10, followed by washing with PBS, inflammatory response was induced by treating with 10 ng/mL lipopolysaccharide (LPS). After treating the cells with H2-DCFDA (Invitrogen), which is a fluorescent substance capable of detecting reactive oxygen species, the amount of fluorescent substance was measured using a multiplate reader (Infinite M200; Tecan, Mannedorf, Switzerland).

The test system of experiment [5] is aged retinal cells (ARPE-19). Description: Mitochondrial function recovering effect in aged retinal cells: reactive oxygen species production (H2DCFDA, flow cytometer). The experiment is classed as cell-based, human. To be noted: compared to cells treated only with DMSO, FIG. 16. The procedure:
The aging of retinal cells was induced while treating with 50 or 100 μM syringaresinol or with DMSO as a negative control, in substantially the same manner as in Test Example 7. For evaluation of mitochondrial function recovering effect, the level of energy (ATP) and reactive oxygen species production in retinal cells was investigated. The energy production was determined by recovering the aged cells after washing with PBS and then with hot water and measuring luminescence using the ATP determination kit (Molecular Probes, Eugene, Oreg., USA) and the Tecan system (Infinite M200, Tecan, Austria). The reactive oxygen species production was measured using a flow cytometer (BD Biosciences, San Jose, Calif., USA) after washing the aged cells with PBS and staining them with the reactive oxygen species detection reagent (H2DCFDA, Invitrogen, Carlsbad, Calif., USA).
For orientation: A flow cytometer gives signals particle by particle.

Experiment [6] has as its system Human myocytes. Description: Fatty acid oxidation promoting ability (3H2O in medium), myocytes. To be noted: 50 μM, vs non-treated group, FIG. 11. The experiment is classed as cell-based. The procedure: Human adipocytes, hepatocytes and myocytes were treated with 50 μM syringaresinol in substantially the same manner as in Test Example 3. The cells were washed with PBS and cultured for a day in a medium for fatty acid oxidation analysis. The medium was recovered and the amount of ^3H2O was measured.

In experiment [7] the test system is aged retinal cells (ARPE-19). The experiment is described as follows: Mitochondrial biosynthesis promoting effect in aged retinal cells (mitochondrial DNA relative to nuclear DNA, real-time PCR). Particulars: vs DMSO, FIG. 15. Type of experiment: cell-based, human. The procedure: The aging of retinal cells was induced while treating with 50 or 100 μM syringaresinol or with DMSO as a negative control, in substantially the same manner as in Test Example 7. The cells treated with each sample were washed 2 times with cold PBS and genomic DNA (gDNA) was extracted therefrom using the FastPure DNA kit (Tokyo, Japan). For evaluation of mitochondrial biosynthesis, the quantity of the mitochondrial DNA marker cytochrome oxidase subunit II and the nuclear DNA marker cyclophilin A was quantified through real-time PCR using the extracted gDNA and the number of mitochondria was measured by calculating the quantity of mitochondrial DNA relative to the nuclear DNA. PCR reaction and analysis were carried out using the Rotor-Gene 3000 system (Corbett Research, Sydney, Australia).

Molecules are shown by their SMILES.

For the compound `COc1cc(C2OCC3C(c4cc(OC)c(O)c(OC)c4)OCC23)cc(OC)c1O` (stereo not shown) [syringaresinol], the SIRT1 expression result is reported as “increased SIRT1 expression in PBMCs in a concentration-dependent manner” in experiment [1]; “increased SIRT1 expression” in experiment [2] (human adipocytes, 20, 50 or 100 μM); “increased SIRT1 expression” in experiment [2] (human hepatocytes, 20, 50 or 100 μM); “increased SIRT1 expression” in experiment [2] (human myocytes, 20, 50 or 100 μM). Besides, the “expression of fatty acid oxidation promoting genes” value in experiment [3] (human adipocytes, FIG. 8) is reported as “increased the expression of fatty acid oxidation promoting genes”; in experiment [3] (human hepatocytes, FIG. 9), “increased the expression of fatty acid oxidation promoting genes”; in experiment [3] (human myocytes, FIG. 10), “increased the expression of fatty acid oxidation promoting genes”. Further, the results for the “decreased reactive oxygen species production” value in experiment [4], in experiment [5] (50 μM) and in experiment [5] (100 μM) were “about 60%”, “about 7%” and around 11%, respectively. For the same compound, in experiment [6], the fatty acid oxidation entry is on record as “increased fatty acid oxidation”. Moreover, the figures for the “increase in mitochondrial biosynthesis (mitochondrial DNA relative to nuclear DNA)” value in experiment [7] (50 μM) and in experiment [7] (100 μM) were “about 40%” and around 60%, respectively.

These data come from US9999611B2, “SIRT 1 activator including syringaresinol” (AMOREPACIFIC CORPORATION, priority 2011, dated 2018).
